Assay results: publication PMC6089974 (Nature Communications, 2018)

Target: T1, TmGalA (Thermotoga maritima, UniProt G4FEF4)
T1 construct: gene galA
Assay: time-dependent inactivation, dilution assay, residual activity with 4-nitrophenyl α-D-galactopyranoside
Type: biochemical
Settings: covalent, irreversible inactivator; Ki from kobs versus concentration (kinact/Ki analysis); 50 mM HEPES pH 7.4, 37 °C, BSA 1 mg/mL; read-out: Km (μM) / Ki

T1 sequence (G4FEF4 whole entry): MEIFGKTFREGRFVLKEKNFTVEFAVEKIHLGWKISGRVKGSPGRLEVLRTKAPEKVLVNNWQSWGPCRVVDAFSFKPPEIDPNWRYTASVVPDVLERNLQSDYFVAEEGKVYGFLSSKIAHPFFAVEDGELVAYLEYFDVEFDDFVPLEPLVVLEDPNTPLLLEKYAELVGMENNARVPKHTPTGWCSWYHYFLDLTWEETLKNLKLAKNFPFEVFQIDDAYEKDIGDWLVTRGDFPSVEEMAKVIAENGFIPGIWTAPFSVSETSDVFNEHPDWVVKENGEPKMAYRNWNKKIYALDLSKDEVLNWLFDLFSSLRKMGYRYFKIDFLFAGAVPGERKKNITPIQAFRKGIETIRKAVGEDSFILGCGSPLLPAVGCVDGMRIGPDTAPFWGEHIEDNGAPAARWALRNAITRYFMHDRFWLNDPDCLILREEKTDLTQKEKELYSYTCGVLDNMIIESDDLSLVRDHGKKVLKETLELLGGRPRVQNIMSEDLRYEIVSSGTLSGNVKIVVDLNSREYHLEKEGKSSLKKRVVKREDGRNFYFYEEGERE

KI (inactivation): 161 ± 18 µM
SMILES: OC[C@@H]1[C@H](O)[C@H](O)[C@@H](O)[C@H]2O[C@@H]12 [compound 8, cyclophellitol analog 8]
